Assay results as given in patent publication US20250257077A1, “BRIDGED BICYCLIC HETEROCYCLOALKYL PYRIDO-[3,4-d]PYRIDAZINE AMINE DERIVATIVES USEFUL AS NLRP3 INHIBITORS” (Ventus Therapeutics U.S., Inc., priority 2022, published 2025).
Converted amounts (≈) assume the structure as drawn. Read-outs that look alike come from different tables or passages of the source. Values belong to the molecule of their own block, whether it stands above or below them.

Legend:
human NLRP3 = biological target: T1, human NLRP3 (Homo sapiens, UniProt Q96P20); assay: Human Whole Blood (hWB) NLRP3 Assay; format: cell-based; details: LPS priming, ATP activation, IL-1β levels
T1 construct: Human whole blood is drawn from healthy volunteers after obtaining written informed consent; from tissue
Protocol: (ii) Human Whole Blood (hWB) NLRP3 Assay
Human whole blood is drawn from healthy volunteers after obtaining written informed consent. Heparin lithium coated tubes are used to collect blood from volunteers. Blood samples are distributed on 96 well plates using 90 μl per well. Priming is performed by adding 5 μl of LPS (026: B6; Sigma L-2654) at a final concentration of 1 μg/ml for 4.5 hours in a humidified incubator with 37° C. 5% CO2. Thirty minutes prior to NLRP3 activation, 5 μl of a 20× compound solution or vehicle (2% dimethylsulfoxide (DMSO)) is added to each well and plates were incubated on a shaker (450 rpm) in a humidified incubator with 37° C., 5% CO2. Activation is then performed by adding 3.3 μl of a 31× ATP solution per well. At the end of the 30 minutes stimulation, the plates are centrifuged (800 g, 10 min, room temperature) and the plasma from each well is frozen at −80° C. IL-1β levels in the supernatant were analyzed using a mesoscale discovery assay (MSD K151TUK) according to the manufacturers’ instructions.

[1] = Brain Levels (Kp and Kpu,u); format: in vivo, CDI mice; details: for Kp at 24 h: mice dosed at 20 mpk PO, whole brain AUC over 24 h divided by plasma AUC
Protocol: (iv) Brain Levels (Kp and Kpu,u)—NLRP3
The in vivo total brain to plasma ratio was assessed in CDI mice after oral administration of the compound. Blood was collected at several timepoints up to 24 h, and transferred into plastic micro centrifuge tubes with EDTA-K2 as anticoagulant. Blood samples were centrifuged at 4000 g for 5 minutes at 4° C., to obtain plasma, then immediately frozen and stored at −75±15° C., prior to analysis. Animals were terminally anaesthetized with a rising concentration of CO2 gas at about 1 minute. At selected timepoints, whole brains were removed from the skull, rinsed in cold PBS to remove blood, dried with clean gauze, then frozen in liquid nitrogen and kept at −75±15° C. before analysis. At the time of analysis, brain samples were homogenized with PBS by tissue weight (g) to PBS volume (mL) ratio 1:3.
Plasma and brain drug levels were quantified by LC/MS/MS on an AB Sciex Triple Quad 5500+instrument, after separation on a HALO 160 A ES-C18, 2.7 μm 2.1×50 mm column. Quantitation was performed using a calibration curve prepared in blank plasma or blank brain homogenate. The software WinNonlin (Phoenix™) was used for pharmacokinetic analysis from the concentrations versus time data, including the AUCinf and AUClast. The Kp ratio (total brain concentration over total plasma concentration) was calculated as (AUCtot,br)/(AUCtot,pl).
The unbound brain exposure was assessed as Kpuu, which is the free brain/free plasma concentration ratio (Cu,bt/Cu,pl). The Cu,br/Cu,pl ratios were obtained from in vivo total brain to plasma ratios (Ctot,br/Ctot,pl) by using in vitro determined Fu,br and Fu,pl.
Plasma protein binding and brain homogenate protein binding were measured by equilibrium dialysis in a HTDialysis plate. The dialysis membranes were soaked in ultrapure water for 60 minutes to separate strips, then in 20% ethanol for 20 minutes, finally in dialysis buffer for 20 minutes. The dialysis set up was assembled according to the manufacturer's instruction. Each cell received 150 μL of plasma or brain homogenate spiked with 1 mM of compound, and dialyzed against an equal volume of dialysis buffer (PBS). The dialysis plate was sealed and incubated in an incubator at 37° C. with 5% CO2 at 100 rpm for 6 hours. At the end of incubation, compound concentration was measured in both chambers by LC-MS/MS on a Triple Quad™ 5500 from AB Inc after separation on a XSelect Hss T3.2.5μ (2.1×30 mm) column. Free fraction (Fu) was calculated as (Peak Area Ratio buffer chamber/Peak Area Ratio plasma chamber). Kpuu=(AUCtot,br×Fu,br)/([…])
The Kpu,u was then calculated upon correcting this kp value with mouse plasma protein binding and mouse brain homogenates binding.
A Kpu,u value >0.3 is considered brain penetrant, and a Kpu,u value ≤0.3 is not considered brain penetrant. When the Kpu,u value is not determined, the Kp value may be useful as a metric of potential brain penetrance if the Kp value is >0.3.

[2] = Mouse Hepatocyte Stability Assay; format: in vitro ADME; details: mouse hepatocytes, 37° C.; read-out: Hep (mouse) (t½ min)
Protocol: (§1) (v) Mouse and Human Hepatocyte Stability Assays
(§2) A hepatocyte stability assay is a laboratory-based method used to determine the metabolic stability of a compound in hepatocytes (liver cells). This assay provides valuable information about how quickly a drug is metabolized in the liver and can be used to assess its potential effectiveness and safety in drug discovery.
(§3) In the assay, cither human or mouse hepatocytes are incubated with the test compound at a controlled temperature of 37° C., for different time periods (e.g., 5, 15, 30, 60, and 120 minutes). At each time point during the incubation, samples are taken, the reaction is terminated, and the amount of test compound remaining analyzed using LC-MS/MS to monitor the disappearance of the test compound over time (Gradient). […] See, e.g., Coe et al., Methods in Pharmacology & Toxicology (2008) 151.

[3] = Human Hepatocyte Stability Assay; format: in vitro ADME; details: human hepatocytes, 37° C.; read-out: Hep (human) (t½ min)
Protocol: as §1, §2, §3

[4] = Solubility Protocol in Phosphate Buffered Saline (PBS); format: physicochemical; details: for solubility kinetic at 2 h / solubility at 2 h: phosphate buffered saline (PBS), 18 °C, kinetic from dmso stock; for solubility kinetic at 2 h: aqueous buffer; for solubility kinetic at 2 h / Sol (PBS): PBS pH 7.4, 2 hours at room temperature, kinetic solubility; for solubility at 2 h: pH 7.4, aqueous buffer
Protocol: (vi) Solubility Protocol in Phosphate Buffered Saline (PBS)
The kinetic solubility of test compounds and control compounds was measured in commercial phosphate buffered saline (PBS), pH 7.4 (Wisent, Canada).
Briefly, a stock solution (20 mM DMSO for controls, and 10 mM DMSO for test compounds) was combined with PBS buffer to reach a targeted concentration of 400 μM for controls and 200 μM for test compounds. The spiked-PBS mixtures were then agitated on a VX-2500 multi-tube vortexer (VWR) for 2 hours at room temperature (18° C.). Following agitation, the samples were filtered on a glass fiber filter (1 μm) and the eluates were diluted 400-fold with a mixture of acetonitrile:water (1:1). Solubility determination was then performed against one standard sample prepared in high organic content at the expected top concentration. The lower limit of quantification was arbitrarily set at 1 μM (400-fold dilution of the top concentration) for assay controls, and 0.5 μM for test compounds. On each experimental run, nicardipine and imipramine were assessed as reference compounds for low and high solubility, respectively. All samples were assessed in triplicate and analyzed by LC-MS/MS (using a CTC PAL autosampler, Thermo Accela UPLC, and a Thermo Quantum mass spectrometer) using electrospray ionization against standards prepared in the same matrix

[5] = CDI, mouse, brain (whole brain homogenate) relative to plasma, oral, 20 mpk, brain levels, mice
[6] = CDI, mouse, brain (whole brain homogenate) relative to plasma, po, 20 mg/kg, Kp corrected with mouse plasma protein binding and mouse brain homogenates binding, 20 mpk PO, read-out: Kpu,u
[7] = CDI, mouse, brain (whole brain homogenate) relative to plasma, po, 20 mg/kg
[8] = CDI, mouse, brain (whole brain homogenate) relative to plasma, oral, 20 mpk, brain levels, unbound, mice, read-out: Kpu,u

T1 sequence (Q96P20 whole entry): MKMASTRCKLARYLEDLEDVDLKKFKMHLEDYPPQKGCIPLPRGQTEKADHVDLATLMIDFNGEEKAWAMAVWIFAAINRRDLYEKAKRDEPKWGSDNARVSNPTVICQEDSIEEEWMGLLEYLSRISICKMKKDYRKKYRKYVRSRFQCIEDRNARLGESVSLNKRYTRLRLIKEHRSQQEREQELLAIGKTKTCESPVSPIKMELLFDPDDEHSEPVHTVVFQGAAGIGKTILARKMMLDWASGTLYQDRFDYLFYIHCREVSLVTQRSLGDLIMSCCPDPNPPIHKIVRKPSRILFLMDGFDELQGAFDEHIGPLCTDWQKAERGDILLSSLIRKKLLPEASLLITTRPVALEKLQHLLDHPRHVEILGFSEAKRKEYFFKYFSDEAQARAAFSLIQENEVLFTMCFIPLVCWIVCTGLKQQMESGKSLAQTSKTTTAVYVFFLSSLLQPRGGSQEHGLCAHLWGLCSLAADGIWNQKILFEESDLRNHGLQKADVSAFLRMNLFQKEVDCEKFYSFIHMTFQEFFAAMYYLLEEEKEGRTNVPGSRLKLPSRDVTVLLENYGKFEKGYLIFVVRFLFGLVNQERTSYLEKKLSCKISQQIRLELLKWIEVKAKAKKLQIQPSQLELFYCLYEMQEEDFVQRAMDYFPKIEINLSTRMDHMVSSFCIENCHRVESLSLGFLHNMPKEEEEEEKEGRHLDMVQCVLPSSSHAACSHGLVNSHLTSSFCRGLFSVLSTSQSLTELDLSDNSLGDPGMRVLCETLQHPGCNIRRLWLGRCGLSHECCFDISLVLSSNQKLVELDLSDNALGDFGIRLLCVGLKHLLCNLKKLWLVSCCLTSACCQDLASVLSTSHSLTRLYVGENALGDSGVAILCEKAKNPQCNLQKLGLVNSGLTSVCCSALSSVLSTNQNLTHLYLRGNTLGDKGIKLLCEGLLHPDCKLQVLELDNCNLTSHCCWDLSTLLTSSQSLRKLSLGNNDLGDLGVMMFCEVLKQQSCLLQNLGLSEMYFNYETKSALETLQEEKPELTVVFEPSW

Compound: Oc1cc(Cl)ccc1-c1nnc(N[C@@H]2C[C@@H]3CC[C@H]2O3)c2cnccc12 (single isomer, unassigned) [Compound 3A*]
IC50 (human NLRP3): 1.16 µM
Kp [1, 5]: 0.3
Kpu,u [1, 6]: 0.15
Kp at 24 h [1, 7]: 0.3
Kpu,u ([1]; brain levels, unbound, mice): 0.15 —
half-life [2]: 2.17 h
half-life [3]: > 4 h
solubility kinetic at 2 h [4]: > 300 µM
solubility at 2 h [4]: > 300 µM

Compound: Oc1cc(C(F)(F)F)ccc1-c1nnc(N[C@@H]2C[C@@H]3CC[C@H]2O3)c2cnccc12 (single isomer, unassigned) [Compound 10A*]
IC50 (human NLRP3): 0.92 µM
Kp [1, 5]: 0.46
Kpu,u [1, 6]: 0.49
Kp at 24 h [1, 7]: 0.46
Kpu,u ([1]; brain levels, unbound, mice): 0.49
half-life [2]: 1.83 h
half-life [3]: 3.17 h
Sol (PBS) [4]: 2.1 µM
solubility at 2 h [4]: 2.1 µM (≈ 0.845 µg/mL)

Compound: Oc1cc(C(F)(F)F)ccc1-c1nnc(N[C@@H]2C[C@H]3CC[C@@H]2O3)c2cnccc12 (single isomer, unassigned) [Compound 10C*]
IC50 (human NLRP3): 0.81 µM
Kp [1, 5]: 0.48
Kpu,u [1, 6]: 0.21
Kp at 24 h [1, 7]: 0.48
Kpu,u ([1]; brain levels, unbound, mice): 0.21
half-life [2]: 2.33 h
half-life [3]: 7.83 h

Compound: Cc1ccc(-c2nnc(N[C@H]3C[C@H]4CC[C@@H](C3)O4)c3cnccc23)c(O)c1 [Compound 2A*-r, 2-(4-(((1R,3r,5S)-8-oxabicyclo[3.2.1]octan-3-yl)amino)pyrido[3,4-d]pyridazin-1-yl)-5-methylphenol]
IC50 (human NLRP3): 0.33 µM
Kp [1, 5]: 0.27
Kpu,u [1, 8]: 0.16
Kpu,u [1, 6]: 0.16
Kp at 24 h [1, 7]: 0.27
half-life [2]: 1.18 h
half-life [3]: > 8 h
Sol (PBS) [4]: 1.9 µM
solubility at 2 h [4]: 1.9 µM (≈ 0.689 µg/mL)

Compound: Oc1cc(C(F)(F)F)ccc1-c1nnc(N[C@H]2C[C@H]3CC[C@@H](C2)O3)c2cnccc12 [Compound 4A*-r, 2-(4-(((1R,3r,5S)-8-oxabicyclo[3.2.1]octan-3-yl)amino)pyrido[3,4-d]pyridazin-1-yl)-5-(trifluoromethyl)phenol]
IC50 (human NLRP3): 1.1 µM
Kp [1, 5]: 0.13
Kpu,u [1, 8]: 0.09
Kpu,u [1, 6]: 0.09
Kp at 24 h [1, 7]: 0.13
half-life [2]: 3.33 h
half-life [3]: > 8 h
Sol (PBS) [4]: 2.4 µM
solubility at 2 h [4]: 2.4 µM (≈ 0.999 µg/mL)

Compound: Oc1cc(C(F)F)ccc1-c1nnc(N[C@H]2C[C@H]3CC[C@@H](C2)O3)c2cnccc12 [Compound 11A*-r, 2-(4-(((1R,3r,5S)-8-oxabicyclo[3.2.1]octan-3-yl)amino)pyrido[3,4-d]pyridazin-1-yl)-5-(difluoromethyl)phenol]
IC50 (human NLRP3): 0.81 µM
Kpu,u [1, 6]: 0.06
Kp at 24 h [1, 7]: 0.08
half-life [2]: 3.83 h
half-life [3]: > 4 h
Sol (PBS) [4]: 0.7 µM
solubility kinetic at 2 h [4]: 0.7 µM (≈ 0.279 µg/mL)

Results, then the molecule that gave them:

IC50 (human NLRP3): 0.11 µM
Kp [1, 5]: 0.61
half-life [2]: 0.35 h
half-life [3]: 4.67 h
Compound: Cc1ccc(-c2nnc(N[C@@H]3C[C@H]4CC[C@@H]3O4)c3cnccc23)c(O)c1 (single isomer, unassigned) [Compound 7C]

IC50 (human NLRP3): 0.15 µM
Kp [1, 5]: 0.87
Kpu,u [1, 8]: 0.44
Kpu,u [1, 6]: 0.44
Kp at 24 h [1, 7]: 0.87
half-life [2]: 2.67 h
half-life [3]: > 4 h
Sol (PBS) [4]: 25 µM
solubility at 2 h [4]: 25 µM (≈ 9.57 µg/mL)
Compound: Oc1cc(Cl)ccc1-c1nnc(N[C@H]2[C@@H]3CC[C@H]2COC3)c2cnccc12 [Compound 5A, 2-(4-(((1R,5S,8s)-3-oxabicyclo[3.2.1]octan-8-yl)amino)pyrido[3,4-d]pyridazin-1-yl)-5-chlorophenol]

IC50 (human NLRP3): 0.2 µM
Kpu,u [1, 6]: 0.51
Kp at 24 h [1, 7]: 0.76
half-life [2]: 2.67 h
half-life [3]: > 4 h
Sol (PBS) [4]: >300 µM
solubility kinetic at 2 h [4]: > 300 µM
Compound: Cc1ccc(-c2nnc(N[C@H]3[C@@H]4CC[C@H]3COC4)c3cnccc23)c(O)c1 [Compound 6A, 2-(4-(((1R,5S,8s)-3-oxabicyclo[3.2.1]octan-8-yl)amino)pyrido[3,4-d]pyridazin-1-yl)-5-methylphenol]
